Measured values as given in PubChem BioAssay AID1845196 (Molecular Pharmacology Branch, DTP, NCI, 2023).

Test system: 292921-168-R tumor spheroid viability
Experiment: Anticancer human tumor 292921-168-R patient-derived pancreatic carcinoma cell line growth inhibition
Settings: spheroids with HUVEC and MSC; for IC50: curve of first compound; for viability, T/C: stronger effect = lower value
Excerpt: Multicellular complex tumor spheroid response to DNA repair inhibitors in combination with DNA-damaging drugs
This study explores the anticancer activities of DNA-damaging drugs and inhibitors of DNA damage repair, both as single agents and in combinations. Complex tumor spheroids comprised of malignant cells, endothelial cells and mesenchymal stem cells served as an in vitro model for human solid tumors. This model system incorporates physiologically relevant features and patient-derived or established malignant cell lines with clinically relevant genetic alterations from many tumor types. Twenty-six patient-derived or established malignant cell lines were evaluated representing sarcoma, melanoma, small cell lung cancer (SCLC), non-small cell lung cancer (NSCLC), as well as bladder, ovarian and pancreatic cancers. The concentration ranges selected for each drug and investigational agent were based upon clinically achievable concentrations if the clinical Cmax of the agent was known.
Compounds. The drugs and compounds olaparib (NSC753686), talazoparib (NSC767125), berzosertib (NSC777718), elimusertib (NSC800525), nedisertib (NSC802822), VX-984 (NSC792969), AZD-1390 (NSC803789), temozolomide (NSC362856), topotecan (NSC609699), trabectedin (NSC813783), staurosporine (NSC755774), and gemcitabine (NSC613327) were obtained from the National Cancer Institute (NCI) Developmental Therapeutics Program Chemical Repository. The FDA-approved anticancer drug set is available from the Developmental Therapeutics Program at https://dtp.cancer.gov/organization/dscb/obtaining/available_plates.htm. […] The stock solutions were prepared in dimethyl sulfoxide (DMSO, Sigma-Aldrich, St. Louis, MO, cat. D2650) at 400-fold the tested concentration and stored at -70 degrees C. Prior to their use, the stock solutions were diluted in fresh medium and the final DMSO concentration in the assay was 0.25% (v/v). All drugs and investigational agents were tested over a range starting from a high concentration at or near the clinical Cmax and decreasing in half-log increments. If the clinical Cmax for an agent had not been determined, the highest concentration tested was 10 microM.
Cell Lines. The patient-derived cancer cell (PDC) lines: 156681-154-R-J1-PDC, 283228-195-R-J1-PDC, 287954-098-R-J1-PDC, 292921-168-R-J2-PDC, 349418-098-R-PDC, 425362-245-T-J1-PDC, 556581-035-R-J1-PDC, and BL0293-F563-PDC were received from the NCI Patient-Derived Models Repository (PDMR, https://pdmr.cancer.gov). The established cell lines HS-SY-2 (RRID:CVCL_8719), MPNST, and SYO-1 (RRID:CVCL_7146) were obtained from the Sloan Kettering Institute. The alveolar soft parts sarcoma cell line ASPS-1 (RRID:CVCL_S738) was established at the NCI and grown from internal seed stocks. The following established cell lines were purchased from the American Type Culture Collection (ATCC, Manassas, VA): G-401 (ATCC, cat. CRL-1441, RRID:CVCL_0270), SW982 (ATCC, cat. HTB-93, RRID:CVCL_1734), VA-ES-BJ (ATCC, cat. CRL-2138, RRID:CVCL_1785), NCI-H719 (ATCC, cat. CRL-5837, RRID:CVCL_1582), NCI-H196 (ATCC, cat. CRL-5823, RRID:CVCL_1509), NCI-H841 (ATCC, cat. CRL-5845, RRID:CVCL_1595), NCI-H1618 (ATCC, cat. CRL-5879, RRID:CVCL_1480), NCI-H1876 (ATCC, cat. CRL-5902, RRID:CVCL_1503), DMS 114 (ATCC, cat. CRL-2066; RRID:CVCL_1174), NCI-H211 (ATCC, cat. CRL-5824; RRID:CVCL_1529), and SW 1271 (ATCC, cat. CRL-2177, RRID:CVCL_1716). The small cell lung cancer cell line COR-L88 was purchased from Sigma-Aldrich (cat. 92031917-1VL, RRID:CVCL_1141). The non-small cell lung cancer cell lines NCI-H226 (RRID:CVCL_1544) and NCI-H322M (RRID:CVCL_1557) were established at the NCI and grown from internal seed stocks. Pooled donor human umbilical vein endothelial cells (HUVEC, Lonza, cat. CC-2519) and human mesenchymal stem cells (hMSC, Lonza, cat. PT-2501) were purchased from Lonza (Walkersville, MD).
Cell Culture. All cells were maintained in an incubator at 37 degrees C and 5% CO2 with 95% humidity. […]

[1] = second compound 0.003 µM, first compound 0.00949 µM
[2] = second compound 0.003 µM, first compound 0.03 µM
[3] = second compound 0.003 µM, first compound 0.0949 µM
[4] = second compound 0.003 µM, first compound 0.3 µM
[5] = second compound 0.003 µM, first compound 0.949 µM
[6] = second compound 0.003 µM, first compound 3 µM
[7] = second compound 0.00949 µM, first compound 0.00949 µM
[8] = second compound 0.00949 µM, first compound 0.03 µM
[9] = second compound 0.00949 µM, first compound 0.0949 µM
[10] = second compound 0.00949 µM, first compound 0.3 µM
[11] = second compound 0.00949 µM, first compound 0.949 µM
[12] = second compound 0.00949 µM, first compound 3 µM
[13] = second compound 0.03 µM, first compound 0.00949 µM
[14] = second compound 0.03 µM, first compound 0.03 µM
[15] = second compound 0.03 µM, first compound 0.0949 µM
[16] = second compound 0.03 µM, first compound 0.3 µM
[17] = second compound 0.03 µM, first compound 0.949 µM
[18] = second compound 0.03 µM, first compound 3 µM
[19] = second compound 0.0949 µM, first compound 0.00949 µM
[20] = second compound 0.0949 µM, first compound 0.03 µM
[21] = second compound 0.0949 µM, first compound 0.0949 µM
[22] = second compound 0.0949 µM, first compound 0.3 µM
[23] = second compound 0.0949 µM, first compound 0.949 µM
[24] = second compound 0.0949 µM, first compound 3 µM
[25] = second compound 0.3 µM, first compound 0.00949 µM
[26] = second compound 0.3 µM, first compound 0.03 µM
[27] = second compound 0.3 µM, first compound 0.0949 µM
[28] = second compound 0.3 µM, first compound 0.3 µM
[29] = second compound 0.3 µM, first compound 0.949 µM
[30] = second compound 0.3 µM, first compound 3 µM
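Note: spheroids exposed to compounds for 7 days.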

For `CNCc1ccc(-c2cc(-c3nc(-c4ccc(S(=O)(=O)C(C)C)cc4)cnc3N)on2)cc1` + CC[C@@]1(O)C(=O)OCc2c1cc1n(c2=O)Cc2cc3c(CN(C)C)c(O)ccc3nc2-1, the IC50 (second compound 0.003 µM) was 0.107 µM, the IC50 (second compound 0.00949 µM) was 0.0692 µM and the IC50 (second compound 0.03 µM) was < 0.00949 µM. The IC50 (second compound 0.0949 µM) was < 0.00949 µM, the IC50 (second compound 0.3 µM) was < 0.00949 µM and the viability, T/C [1] was 92.2%. For the same compound, the viability, T/C [2] was 77.3%, the viability, T/C [3] was 55.9% and the viability, T/C [4] was 21.1%. It also gave a viability, T/C [5] of 16.6%, a viability, T/C [6] of 8.99% and a viability, T/C [7] of 73.1%. It also gave a viability, T/C [8] of 74.7%, a viability, T/C [9] of 41% and a viability, T/C [10] of 16.7%. For the same compound, the viability, T/C [11] was 15.6%, the viability, T/C [12] was 10.3% and the viability, T/C [13] was 35.9%. The viability, T/C [14] was 32.9%, the viability, T/C [15] was 27% and the viability, T/C [16] was 14.7%. For the same compound, the viability, T/C [17] was 13.4%, the viability, T/C [18] was 9.47% and the viability, T/C [19] was 12.6%. It also gave a viability, T/C [20] of 15%, a viability, T/C [21] of 11.2% and a viability, T/C [22] of 10.1%. For the same compound, the viability, T/C [23] was 10.3%, the viability, T/C [24] was 2.13% and the viability, T/C [25] was 4.63%. It also gave a viability, T/C [26] of 4.83%, a viability, T/C [27] of 4.59% and a viability, T/C [28] of 5.23%. The viability, T/C [29] was 6.72% and the viability, T/C [30] was 0.97%.

`Cc1sc2c(c1C)C(c1ccc(Cl)cc1)=NC(CC(=O)Nc1ccc(O)cc1)c1nnc(C)n1-2` (stereo not given) + CC[C@@]1(O)C(=O)OCc2c1cc1n(c2=O)Cc2cc3c(CN(C)C)c(O)ccc3nc2-1 was tested, and the IC50 (second compound 0.003 µM) was 0.389 µM, the IC50 (second compound 0.00949 µM) was 0.449 µM and the IC50 (second compound 0.03 µM) was < 0.00949 µM. The IC50 (second compound 0.0949 µM) was < 0.00949 µM, the IC50 (second compound 0.3 µM) was < 0.00949 µM and the viability, T/C [1] was 92.5%. The viability, T/C [2] was 67.6%, the viability, T/C [3] was 62% and the viability, T/C [4] was 57.6%. For the same compound, the viability, T/C [5] was 44.1%, the viability, T/C [6] was 28.5% and the viability, T/C [7] was 81.1%. For the same compound, the viability, T/C [8] was 67.4%, the viability, T/C [9] was 63.8% and the viability, T/C [10] was 56.3%. For the same compound, the viability, T/C [11] was 43.5%, the viability, T/C [12] was 21.6% and the viability, T/C [13] was 31.5%. For the same compound, the viability, T/C [14] was 31.4%, the viability, T/C [15] was 29.6% and the viability, T/C [16] was 25%. It also gave a viability, T/C [17] of 13.8%, a viability, T/C [18] of 2.79% and a viability, T/C [19] of 9.7%. For the same compound, the viability, T/C [20] was 8.41%, the viability, T/C [21] was 6.38% and the viability, T/C [22] was 3.78%. For the same compound, the viability, T/C [23] was 1.73%, the viability, T/C [24] was 1.06% and the viability, T/C [25] was 4.29%. It also gave a viability, T/C [26] of 3.58%, a viability, T/C [27] of 3.16% and a viability, T/C [28] of 1.72%. It also gave a viability, T/C [29] of 0.92% and a viability, T/C [30] of 0.66%.
